Assay results reported in US12084437B2, “Halo-substituted piperidines as orexin receptor modulators” (AstraZeneca AB, priority 2016, dated 2024).
Where “and” joins values, the source holds several entries; their conditions need not be identical. Equal values may be shown once.

Assays:
[1] = target: T1, OX1 (Homo sapiens, UniProt O43613); assay: Orexin receptor cell-based functional assay, [Ca2+]i by FLIPR, CHO-OX1 cells; conditions: FLIPR calcium, antagonism of EC90 of [OX], read-out: OXI, IC50
T1 construct: expressed in transfected cells; host or cells: CHO (CHO-OX1)
T1 sequence (O43613 1-425): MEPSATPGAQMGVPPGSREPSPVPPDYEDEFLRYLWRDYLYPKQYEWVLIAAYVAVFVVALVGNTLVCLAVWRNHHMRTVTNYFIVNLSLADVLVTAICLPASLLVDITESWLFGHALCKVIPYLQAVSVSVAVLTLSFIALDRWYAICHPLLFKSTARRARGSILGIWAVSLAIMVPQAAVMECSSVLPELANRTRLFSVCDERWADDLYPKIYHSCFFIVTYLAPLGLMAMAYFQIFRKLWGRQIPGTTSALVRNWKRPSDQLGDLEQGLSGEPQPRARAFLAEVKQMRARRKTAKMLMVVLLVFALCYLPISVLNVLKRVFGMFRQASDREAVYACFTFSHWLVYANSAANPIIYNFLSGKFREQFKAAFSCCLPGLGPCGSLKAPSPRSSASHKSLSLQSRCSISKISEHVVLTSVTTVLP
Procedure: (§1) Measurement of [Ca^2+]i using a FLIPR: CHO-OX1 or CHO-OX2 cells were seeded into black-walled clear-base 384-well plates (Corning, catalog #3712) at a density of 20,000 cells per well in F12-K medium supplemented with 10% FBS and then incubated in a 5% CO2, 37° C. incubator overnight to reach 90% confluency. The cells were incubated with equal volume of calcium6 loading buffer (Molecular Devices, Inc.) containing 2.5 mM probenecid at 37° C. for 2 h, followed by test compounds (dose-range 0.1 nM-10 μM) for another 30 min. The plates were then placed into a FLIPR (Molecular Devices, Inc.) to monitor fluorescence (λ excitation 488 nm, λ emission 540 nm) before and after the addition of EC90 of [OX].

[2] = target: T2, OX2 (Homo sapiens, UniProt O43614); assay: Orexin receptor cell-based functional assay, [Ca2+]i by FLIPR, CHO-OX2 cells; conditions: FLIPR calcium, antagonism of EC90 of [OX]
T2 construct: expressed in transfected cells; host or cells: CHO (CHO-OX2)
T2 sequence (O43614 1-444): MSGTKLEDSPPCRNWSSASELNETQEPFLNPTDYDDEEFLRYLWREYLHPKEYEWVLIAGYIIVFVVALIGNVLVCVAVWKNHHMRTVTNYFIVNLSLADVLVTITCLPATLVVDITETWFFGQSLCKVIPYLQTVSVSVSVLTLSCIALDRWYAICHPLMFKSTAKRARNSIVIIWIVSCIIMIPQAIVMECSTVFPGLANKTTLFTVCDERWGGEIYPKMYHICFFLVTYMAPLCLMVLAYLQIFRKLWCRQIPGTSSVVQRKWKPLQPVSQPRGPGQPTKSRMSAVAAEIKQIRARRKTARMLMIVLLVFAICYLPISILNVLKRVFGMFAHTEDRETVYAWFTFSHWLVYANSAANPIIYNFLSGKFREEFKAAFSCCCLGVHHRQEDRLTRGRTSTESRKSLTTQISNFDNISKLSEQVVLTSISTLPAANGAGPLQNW
Procedure: as §1, with “[OX]. Results for exemplary compounds of Formulae (I), (Ia), (Ib), (II), (IIa), (III), (IIIa), (IV), (IVa), (V), or (Va) are shown in Table 3.” for “[OX].”

Compound | IC50 [1] | IC50 [2] [nM]
C[C@@H]1CC(F)(F)CN(C(=O)c2nn(C)cc2-c2ccc(Cl)cc2)[C@@H]1CNc1ncc(C(F)(F)F)cn1 [Compound 33] | 4 nM | 4700
C[C@@H]1CC(F)(F)CN(C(=O)c2nn(C)cc2-c2ccccn2)[C@@H]1CNc1ncc(C(F)(F)F)cn1 [Compound 36] | 19 nM | > 5000
Cc1cccnc1-c1cn(C)nc1C(=O)N1CC(F)(F)C[C@@H](C)[C@H]1CNc1ncc(C(F)(F)F)cn1 [Compound 39] | 1160 nM | > 5000
CCc1cnc(NC[C@@H]2[C@H](C)CC(F)(F)CN2C(=O)c2nn(C)cc2-c2ccc(F)cn2)nc1 [Compound 41] | > 5000 nM | > 5000
C[C@@H]1CC(F)(F)CN(C(=O)c2nn(C)cc2-c2ccc(F)cn2)[C@@H]1CNc1ncc(C(F)(F)F)cn1 [Compound 42] | > 1000 nM | > 5000
Cc1ccc(-c2cn(C)nc2C(=O)N2CC(F)(F)C[C@@H](C)[C@H]2CNc2ncc(C(F)(F)F)cn2)nc1 [Compound 44] | 10 nM | > 5000
COc1ccc(-c2cn(C)nc2C(=O)N2CC(F)(F)C[C@@H](C)[C@H]2CNc2ncc(C(F)(F)F)cn2)nc1 [Compound 45] | 47 nM | > 5000
Cc1cccc(-c2cn(C)nc2C(=O)N2CC(F)(F)C[C@@H](C)[C@H]2CNc2ncc(C(F)(F)F)cn2)n1 [Compound 46] | 7 nM | > 5000
Cc1nc(-c2ccccc2)c(C(=O)N2CC(F)(F)C[C@@H](C)[C@H]2CNc2ncc(C(F)(F)F)cn2)s1 [Compound 48] | 607 nM | > 5000
Cc1nc(C(=O)N2CC(F)(F)C[C@@H](C)[C@H]2CNc2ncc(C(F)(F)F)cn2)c(-c2ncccn2)s1 [Compound 49] | 6 nM | > 5000
Cc1nc(C(=O)N2CC(F)(F)C[C@@H](C)[C@H]2CNc2ncc(Cl)cn2)c(-c2ncccn2)s1 [Compound 50] | 20 nM | > 5000
Cc1ccc(-c2ccccc2)c(C(=O)N2CC(F)(F)C[C@@H](C)[C@H]2CNc2ncc(C(F)(F)F)cn2)n1 [Compound 51] | 4 nM | > 5000
Cc1ccc(-c2ccccc2)c(C(=O)N2CC(F)(F)C[C@@H](C)[C@H]2CNc2ncc(Cl)cn2)n1 [Compound 52] | 9 nM | > 5000
C[C@@H]1CC(F)(F)CN(C(=O)c2cc(C#N)ccc2-c2ccc(F)cc2)[C@@H]1CNc1ncc(Cl)cn1 [Compound 53] | 29 nM | > 5000
C[C@@H]1CC(F)(F)CN(C(=O)c2cc(F)ccc2-c2ncccn2)[C@@H]1CNc1ncc(C(F)(F)F)cn1 [Compound 54] | 43 nM | > 5000
Cc1ccc(-c2ncccn2)c(C(=O)N2CC(F)(F)C[C@@H](C)[C@H]2CNc2ncc(C(F)(F)F)cn2)c1 [Compound 55, ((2S,3R)-5,5-difluoro-3-methyl-2-(((5-(trifluoromethyl)pyrimidin-2-yl)amino)methyl)piperidin-1-yl)(5-methyl-2-(pyrimidin-2-yl)phenyl)methanone] | 30 nM | > 5000
C[C@@H]1CC(F)(F)CN(C(=O)c2cc(Cl)ccc2-c2ncccn2)[C@@H]1CNc1ncc(C(F)(F)F)cn1 [Compound 56, (5-chloro-2-(pyrimidin-2-yl)phenyl)((2S,3R)-5,5-difluoro-3-methyl-2-(((5-(trifluoromethyl)pyrimidin-2-yl)amino)methyl)piperidin-1-yl)methanone] | 7 nM | > 5000
C[C@@H]1CC(F)(F)CN(C(=O)c2cc(Cl)ccc2-c2ncccn2)[C@@H]1CNc1ncc(Cl)cn1 [Compound 57, (5-chloro-2-(pyrimidin-2-yl)phenyl)((2S,3R)-2-(((5-chloropyrimidin-2-yl)amino)methyl)-5,5-difluoro-3-methylpiperidin-1-yl)methanone] | 24 nM | > 5000
Cc1ccc(-c2sc(C)nc2C(=O)N2CC(F)(F)C[C@@H](C)[C@H]2CNc2ncc(C(F)(F)F)cn2)cc1 [Compound 64] | 4 nM | > 5000

Compound | IC50 [1] | IC50 [2] [nM]
Cc1nc(C(=O)N2CC(F)(F)C[C@@H](C)[C@H]2CNc2ncc(C(F)(F)F)cn2)c(-c2ccccc2)s1 [Compound 65] | 2 nM | > 5000
Cc1nc(C(=O)N2CC(F)(F)C[C@@H](C)[C@H]2CNc2ncc(C(F)(F)F)cn2)c(-c2ccccc2F)s1 [Compound 66] | 1 nM | 2080
Cc1nc(C(=O)N2CC(F)(F)C[C@@H](C)[C@H]2CNc2ncc(C(F)(F)F)cn2)c(-c2cccc(F)c2)s1 [Compound 67] | 5 nM | 1110
Cc1nc(C(=O)N2CC(F)(F)C[C@@H](C)[C@H]2CNc2ncc(C(F)(F)F)cn2)c(-c2ccc(F)cc2)s1 [Compound 68, ((2S,3R)-5,5-difluoro-3-methyl-2-(((5-(trifluoromethyl)pyrimidin-2-yl)amino)methyl)piperidin-1-yl)(5-(4-fluorophenyl)-2-methylthiazol-4-yl)methanone] | 8 nM | > 5000
Cc1nc(C(=O)N2CC(F)(F)C[C@@H](C)[C@H]2CNc2ncc(Cl)cn2)c(-c2ccc(F)cc2)s1 [Compound 69] | 9 nM | > 5000
Cc1nc(C(=O)N2CC(F)(F)C[C@@H](C)[C@H]2CNc2ncc(C(F)(F)F)cn2)c(-c2ccccn2)s1 [Compound 70] | 5 nM | > 5000
Cc1nc(C(=O)N2CC(F)(F)C[C@@H](C)[C@H]2CNc2ncc(C(F)(F)F)cn2)c(-c2ccc(F)cn2)s1 [Compound 72] | 237 nM | > 5000
Cc1ccnc(-c2sc(C)nc2C(=O)N2CC(F)(F)C[C@@H](C)[C@H]2CNc2ncc(C(F)(F)F)cn2)c1 [Compound 74] | 6 nM | > 5000
Cc1nc(C(=O)N2CC(F)(F)C[C@@H](C)[C@H]2CNc2ncc(C(F)(F)F)cn2)c(-c2ncccc2C)s1 [Compound 75] | 12 nM | > 5000
Cc1ccc(-c2sc(C)nc2C(=O)N2CC(F)(F)C[C@@H](C)[C@H]2CNc2ncc(C(F)(F)F)cn2)nc1 [Compound 76] | 10 nM | > 5000
Cc1cccc(-c2sc(C)nc2C(=O)N2CC(F)(F)C[C@@H](C)[C@H]2CNc2ncc(C(F)(F)F)cn2)n1 [Compound 77] | 4 nM | > 5000
COc1ccc(-c2sc(C)nc2C(=O)N2CC(F)(F)C[C@@H](C)[C@H]2CNc2ncc(C(F)(F)F)cn2)nc1 [Compound 78] | 2 nM | > 5000
C[C@@H]1CC(F)(F)CN(C(=O)c2nn(C)nc2-c2ccc(F)cc2)[C@@H]1CNc1ncc(C(F)(F)F)cn1 [Compound 81] | 102 nM | > 5000
C[C@@H]1CC(F)(F)CN(C(=O)c2nn(C)nc2-c2ccccc2)[C@@H]1CNc1ncc(C(F)(F)F)cn1 [Compound 82] | 45 nM | > 5000
C[C@@H]1CC(F)(F)CN(C(=O)c2nn(C)nc2-c2ccccn2)[C@@H]1CNc1ncc(C(F)(F)F)cn1 [Compound 83] | 56 nM | > 5000
Cc1nc(C(=O)N2CC(F)(F)C[C@@H](C)[C@H]2CNc2ncc(C(F)(F)F)cn2)c(-c2ccc(F)cc2)o1 [Compound 84] | 130 nM | > 5000
Cc1nc(C(=O)N2CC(F)(F)C[C@@H](C)[C@H]2CNc2ncc(C(F)(F)F)cn2)c(-c2ccccc2)o1 [Compound 85] | 12 nM and 30 nM | > 5000
Cc1nc(C(=O)N2CC(F)(F)C[C@@H](C)[C@H]2CNc2ncc(C(F)(F)F)cn2)c(-c2ccccn2)o1 [Compound 87] | > 1000 nM | > 5000
